Results taken from PMC9403976, “Elucidating the path to Plasmodium prolyl-tRNA synthetase inhibitors that overcome halofuginone resistance” (Nature Communications, 2022).
“And” between values parts separate entries of the source, which are not always exact repeats. Identical values can stand only once. Like-named read-outs stand apart in the source and are kept apart here.

How the values were obtained:
[1] = system: P. falciparum Dd2-2D4 NCP26 selections S1-3; experiment: ABS growth assay on bulk populations and clones from NCP26 resistance selections S1-3; format: cell-based, Plasmodium falciparum; conditions: for EC50: Plasmodium falciparum; for Fold-change Resistance: independent experiments
Description: In short, P. falciparum erythrocytic-stage parasites at 1% parasitemia and 1% hematocrit in RPMI + 0.5% Albumax were seeded at 40 μL/well in 384-well plates with test compounds in triplicate, dose-response format with 10 μM dihydroartemisinin as a kill-control and blank (no compound) wells as a growth-control. […] After 72 h, growth was quantified by measuring fluorescence (Molecular Devices SpectraMax iD5) following SYBR Green 1 staining. Data were analyzed in Excel and plotted in PRISM (V. 8.4.3–9.1.0, GraphPad).
This cycle was repeated for ~50 generations (~100 days), corresponding to 5–6 cycles of drug pressure.
Clonal parasites were isolated from each selection flask by limiting dilution of ring stage parasites in 96-well plates to an average of 0.8 and 0.2 parasites per well.

[2] = system: P. falciparum Dd2-2D4; experiment: P. falciparum asexual blood stage (ABS) growth assay, SYBR Green, 72 h, wild-type parasites; format: cell-based, Plasmodium falciparum; conditions: Plasmodium falciparum
[3] = target: T1, PfcProRS (Plasmodium falciparum, UniProt Q8I5R7); format: binding; conditions: for Normalized response, dose-response replicates (SI Fig 14): replicates 1-3
T1 construct: made in house; host or cells: E. coli SoluBL-21
T1 sequence (Q8I5R7 249-746): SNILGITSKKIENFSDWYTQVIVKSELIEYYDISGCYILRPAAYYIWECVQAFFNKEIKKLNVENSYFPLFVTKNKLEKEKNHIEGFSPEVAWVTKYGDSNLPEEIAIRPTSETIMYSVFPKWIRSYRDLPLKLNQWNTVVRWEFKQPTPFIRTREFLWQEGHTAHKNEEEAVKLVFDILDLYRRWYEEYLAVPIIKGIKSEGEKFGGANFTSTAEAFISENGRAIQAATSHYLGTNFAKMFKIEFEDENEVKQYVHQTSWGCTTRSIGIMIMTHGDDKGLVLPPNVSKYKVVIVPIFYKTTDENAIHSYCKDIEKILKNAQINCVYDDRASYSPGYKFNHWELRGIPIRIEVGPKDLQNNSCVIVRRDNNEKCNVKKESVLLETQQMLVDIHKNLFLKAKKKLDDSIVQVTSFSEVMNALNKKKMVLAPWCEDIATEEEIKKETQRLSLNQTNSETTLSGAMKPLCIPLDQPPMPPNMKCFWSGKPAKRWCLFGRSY

[4] = target: HsProRS (Homo sapiens, UniProt P07814); experiment: TR-FRET ligand displacement assay with tracer MAT379 (CoraFluor-1-Halo and anti-His6 antibody formats); format: binding; parameters: made in house; host or cells: E. coli SoluBL-21; conditions: for Kd: 250 nM MAT379; for normalized TR-FRET signal (dose-response replicates): SI Fig 17a
Chain of HsProRS (P07814 996-1512): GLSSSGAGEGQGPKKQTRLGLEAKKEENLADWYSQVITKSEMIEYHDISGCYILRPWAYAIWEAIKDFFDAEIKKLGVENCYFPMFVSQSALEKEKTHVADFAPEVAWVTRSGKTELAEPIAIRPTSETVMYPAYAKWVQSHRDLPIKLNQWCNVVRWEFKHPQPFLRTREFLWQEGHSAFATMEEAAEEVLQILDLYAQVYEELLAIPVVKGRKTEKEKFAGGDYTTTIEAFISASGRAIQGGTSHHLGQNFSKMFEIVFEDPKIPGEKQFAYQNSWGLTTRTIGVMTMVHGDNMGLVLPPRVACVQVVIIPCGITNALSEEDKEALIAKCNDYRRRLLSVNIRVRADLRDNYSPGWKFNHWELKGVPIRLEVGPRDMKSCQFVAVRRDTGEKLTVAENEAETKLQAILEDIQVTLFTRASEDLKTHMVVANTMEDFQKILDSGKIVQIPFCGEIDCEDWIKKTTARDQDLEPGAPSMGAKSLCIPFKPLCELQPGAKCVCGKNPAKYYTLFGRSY

[5] = system: HFGR-I P. falciparum (elevated proline homeostasis and PfcProRS^L482H); experiment: P. falciparum ABS growth assay, SYBR Green, 72 h, HFGR-I parasites; format: cell-based, Plasmodium falciparum; conditions: HFGR-I
How it was run: (§1)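 Dd2-derived P. falciparum lines (HFGR-I, halofuginone-induced) at 1% parasitemia and 1% hematocrit in RPMI + 0.5% Albumax were exposed to compounds in triplicate dose-response for 72 h. Growth was read as SYBR Green 1 fluorescence, with 10 μM dihydroartemisinin as kill control and compound-free wells as growth control.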

[6] = system: halofuginone-induced P. falciparum (elevated proline homeostasis); experiment: P. falciparum ABS growth assay, SYBR Green, 72 h, halofuginone-induced parasites; format: cell-based, Plasmodium falciparum; conditions: Halofuginone-Induced (HFG-Induced)
How it was run: as §1

[7] = Log[inhibitor] (M) -5.000, series r16-r27

SMILES: C[C@@H]1C[C@H](C)C[C@H](C)[C@@H](O)CC(=O)O[C@H]([C@@H]2CCC[C@H]2C(=O)O)C/C=C/C=C(/C#N)[C@H](O)[C@@H](C)C1 [Borrelidin, borrelidin, reference compound]
- EC50 ([1]; DD2, cell line S1 - Clone A8, read-out: EC50 [nM] mean): 1.5 nM
- EC50 ([1]; DD2, cell line S1 - bulk population, read-out: EC50 [nM] mean): 1.45 nM
- EC50 ([1]; DD2, cell line S2 - Clone A3, read-out: EC50 [nM] mean): 1.6 nM
- EC50 ([1]; DD2, cell line S2 - Clone B9, read-out: EC50 [nM] mean): 4.67 nM
- EC50 ([1]; DD2, cell line S2 - Clone C5, read-out: EC50 [nM] mean): 1.51 nM
- EC50 ([1]; DD2, cell line S2 - bulk population, read-out: EC50 [nM] mean): 1.3 nM
- EC50 ([1]; DD2, cell line S3 - Clone B3, read-out: EC50 [nM] mean): 1.34 nM
- EC50 ([1]; DD2, cell line S3 - Clone B7, read-out: EC50 [nM] mean): 1.38 nM
- EC50 ([1]; DD2, cell line S3 - bulk population, read-out: EC50 [nM] mean): 1.3 nM
- EC50 ([1]; DD2, read-out: EC50 [nM] mean, cell line S3 - Clone B2): 5.92 nM
- Fold-change Resistance ([1]; S2 - Clone B9): 1.46 and 0.77
- Fold-change Resistance ([1]; S3 - Clone B2): 1.02 and 1.96
- EC50 ([2]; cell line Dd2-2D4 (parent), read-out: EC50 [nM] mean): 6.05 nM

SMILES: CC(C)(C)OC(=O)N1CCC[C@H]1C(=O)NCC1CCN(C(=O)Nc2nccnc2C(=O)NC2Cc3ccccc3C2)CC1 [compound 32]
- Normalized response, dose-response replicates (SI Fig 14) ([3]; Log[inhibitor] (M) -5.000): 8.11E-02 and -2.06E-02 and -4.64E-02
- Normalized response, dose-response replicates (SI Fig 14) ([3]; Log[inhibitor] (M) -5.301): 3.54E-04 and -5.93E-02 and 6.94E-02
- Normalized response, dose-response replicates (SI Fig 14) ([3]; Log[inhibitor] (M) -5.601): 6.67E-02 and 8.89E-02 and 6.64E-02
- Normalized response, dose-response replicates (SI Fig 14) ([3]; Log[inhibitor] (M) -5.904): 2.31E-01 and 3.17E-01 and 2.64E-01
- Normalized response, dose-response replicates (SI Fig 14) ([3]; Log[inhibitor] (M) -6.208): 3.63E-01 and 4.57E-01 and 4.26E-01
- Normalized response, dose-response replicates (SI Fig 14) ([3]; Log[inhibitor] (M) -6.509): 7.41E-01 and 6.71E-01 and 7.68E-01
- Normalized response, dose-response replicates (SI Fig 14) ([3]; Log[inhibitor] (M) -6.796): 9.02E-01 and 7.89E-01 and 8.70E-01
- Normalized response, dose-response replicates (SI Fig 14) ([3]; Log[inhibitor] (M) -7.108): 8.53E-01 and 8.96E-01 and 8.71E-01
- Normalized response, dose-response replicates (SI Fig 14) ([3]; Log[inhibitor] (M) -7.409): 8.49E-01 and 8.87E-01 and 9.83E-01
- Normalized response, dose-response replicates (SI Fig 14) ([3]; Log[inhibitor] (M) -7.710): 9.08E-01 and 9.29E-01 and 9.85E-01
- Normalized response, dose-response replicates (SI Fig 14) ([3]; Log[inhibitor] (M) -8.000): 9.86E-01 and 8.66E-01 and 9.79E-01
- Normalized response, dose-response replicates (SI Fig 14) ([3]; Log[inhibitor] (M) -8.301): 1.11E+00 and 8.88E-01 and 9.05E-01
- Normalized response, dose-response replicates (SI Fig 14) ([3]; Log[inhibitor] (M) -8.602): 9.30E-01 and 8.25E-01 and 1.02E+00
- Normalized response, dose-response replicates (SI Fig 14) ([3]; Log[inhibitor] (M) -9.000): 8.77E-01 and 8.28E-01 and 9.46E-01
- Normalized response, dose-response replicates (SI Fig 14) ([3]; Log[inhibitor] (M) -9.301): 8.47E-01 and 9.35E-01 and 9.98E-01
- PfcProRS -- best Kd ([3]; SI Fig 16a, values on -log scale): 8.272
- Kd ([4]; HsProRS (KD [nM]) + proline, 100 μM proline): 270 nM
- Kd ([4]; HsProRS (KD [nM]) −, absence of substrates): 72.1 nM
- normalised signal, dose-response point (Fig 4d) ([4]; Log[inhibitor] (M) -5.000, series of 32): 2.12E-01 and 2.00E-01 and 2.05E-01
- normalised signal, dose-response point (Fig 4d) ([4]; Log[inhibitor] (M) -5.260): 3.41E-01 and 3.06E-01 and 3.25E-01
- normalised signal, dose-response point (Fig 4d) ([4]; Log[inhibitor] (M) -5.520): 5.51E-01 and 5.09E-01 and 5.11E-01
- normalised signal, dose-response point (Fig 4d) ([4]; Log[inhibitor] (M) -5.770): 5.87E-01 and 6.67E-01 and 6.60E-01
- normalised signal, dose-response point (Fig 4d) ([4]; Log[inhibitor] (M) -6.020): 8.17E-01 and 7.53E-01 and 7.81E-01
- normalised signal, dose-response point (Fig 4d) ([4]; Log[inhibitor] (M) -6.280): 8.69E-01 and 9.20E-01 and 9.33E-01
- normalised signal, dose-response point (Fig 4d) ([4]; Log[inhibitor] (M) -6.530): 9.20E-01 and 9.88E-01 and 9.42E-01
- normalised signal, dose-response point (Fig 4d) ([4]; Log[inhibitor] (M) -6.800): 9.40E-01 and 8.89E-01
- normalised signal, dose-response point (Fig 4d) ([4]; Log[inhibitor] (M) -7.060): 9.33E-01 and 9.82E-01 and 1.04E+00
- normalised signal, dose-response point (Fig 4d) ([4]; Log[inhibitor] (M) -7.320): 9.28E-01 and 1.05E+00 and 1.04E+00
- normalised signal, dose-response point (Fig 4d) ([4]; Log[inhibitor] (M) -7.550): 9.75E-01 and 9.78E-01 and 9.48E-01
- normalised signal, dose-response point (Fig 4d) ([4]; Log[inhibitor] (M) -7.800): 9.53E-01 and 9.20E-01 and 9.82E-01
- normalised signal, dose-response point (Fig 4d) ([4]; Log[inhibitor] (M) -8.100): 1.05E+00 and 1.02E+00 and 1.07E+00
- normalised signal, dose-response point (Fig 4d) ([4]; Log[inhibitor] (M) -8.400): 1.08E+00 and 1.05E+00 and 1.02E+00
- normalised signal, dose-response point (Fig 4d) ([4]; Log[inhibitor] (M) -8.590): 1.09E+00 and 1.06E+00 and 1.01E+00
- normalized TR-FRET signal (dose-response replicates) ([4]; Log[inhibitor] (M) -5.000): 2.39E-01 and 2.20E-01 and 1.87E-01
- normalized TR-FRET signal (dose-response replicates) ([4]; Log[inhibitor] (M) -5.301): 3.62E-01 and 3.47E-01 and 3.37E-01
- normalized TR-FRET signal (dose-response replicates) ([4]; Log[inhibitor] (M) -5.601): 5.14E-01 and 4.86E-01 and 5.28E-01
- normalized TR-FRET signal (dose-response replicates) ([4]; Log[inhibitor] (M) -5.904): 6.65E-01 and 6.61E-01 and 6.44E-01
- normalized TR-FRET signal (dose-response replicates) ([4]; Log[inhibitor] (M) -6.208): 7.43E-01 and 7.50E-01 and 7.76E-01
- normalized TR-FRET signal (dose-response replicates) ([4]; Log[inhibitor] (M) -6.509): 8.47E-01 and 8.09E-01 and 8.87E-01
- normalized TR-FRET signal (dose-response replicates) ([4]; Log[inhibitor] (M) -6.796): 8.64E-01 and 8.39E-01 and 8.67E-01
- normalized TR-FRET signal (dose-response replicates) ([4]; Log[inhibitor] (M) -7.108): 8.86E-01 and 8.93E-01 and 9.29E-01
- normalized TR-FRET signal (dose-response replicates) ([4]; Log[inhibitor] (M) -7.409): 9.16E-01 and 8.51E-01 and 8.90E-01
- normalized TR-FRET signal (dose-response replicates) ([4]; Log[inhibitor] (M) -7.710): 8.73E-01 and 8.93E-01 and 9.04E-01
- normalized TR-FRET signal (dose-response replicates) ([4]; Log[inhibitor] (M) -8.000): 8.95E-01 and 8.48E-01 and 9.51E-01
- normalized TR-FRET signal (dose-response replicates) ([4]; Log[inhibitor] (M) -8.301): 9.44E-01 and 8.99E-01 and 9.43E-01
- normalized TR-FRET signal (dose-response replicates) ([4]; Log[inhibitor] (M) -8.602): 9.47E-01 and 8.94E-01 and 9.08E-01
- normalized TR-FRET signal (dose-response replicates) ([4]; Log[inhibitor] (M) -9.000): 8.96E-01 and 9.17E-01 and 8.59E-01
- normalized TR-FRET signal (dose-response replicates) ([4]; Log[inhibitor] (M) -9.301): 8.96E-01 and 9.24E-01 and 9.14E-01
- EC50 ([2]; DD2, SI Fig 16b, values on -log scale, read-out: ABS - Dd2-2D4 (converted)): 63.2 nM
- parasite growth, dose-response point [5, 7]: 65 and 64 and 69
- parasite growth, dose-response point ([5]; Log[inhibitor] (M) -5.408): 103 and 102 and 96
- parasite growth, dose-response point ([5]; Log[inhibitor] (M) -5.816): 108 (2×) and 102
- parasite growth, dose-response point ([5]; Log[inhibitor] (M) -6.222): 105
- parasite growth, dose-response point ([5]; Log[inhibitor] (M) -6.638): 107 and 104 and 103
- parasite growth, dose-response point ([5]; Log[inhibitor] (M) -7.046): 101 and 105 and 99
- parasite growth, dose-response point ([5]; Log[inhibitor] (M) -7.450): 87 and 91 and 96
- parasite growth, dose-response point ([5]; Log[inhibitor] (M) -7.854): 87 and 93 and 83
- parasite growth, dose-response point ([5]; Log[inhibitor] (M) -8.260): 88 and 90 and 94
- parasite growth, dose-response point ([5]; Log[inhibitor] (M) -8.699): 93 and 91
- parasite growth, dose-response point ([5]; Log[inhibitor] (M) -9.000): 91 and 92 and 87
- parasite growth, dose-response point ([5]; Log[inhibitor] (M) -9.488): 92 and 82
- parasite growth, dose-response point [6, 7]: 56 and 59 and 61
- parasite growth, dose-response point ([6]; Log[inhibitor] (M) -5.408): 91 and 93
- parasite growth, dose-response point ([6]; Log[inhibitor] (M) -5.816): 97 and 101
- parasite growth, dose-response point ([6]; Log[inhibitor] (M) -6.222): 101 and 104
- parasite growth, dose-response point ([6]; Log[inhibitor] (M) -6.638): 105 and 99 and 109
- parasite growth, dose-response point ([6]; Log[inhibitor] (M) -7.046): 102 and 106
- parasite growth, dose-response point ([6]; Log[inhibitor] (M) -7.450): 96 and 98 and 97
- parasite growth, dose-response point ([6]; Log[inhibitor] (M) -7.854): 92 and 97 and 99
- parasite growth, dose-response point ([6]; Log[inhibitor] (M) -8.260): 102 and 96 and 100
- parasite growth, dose-response point ([6]; Log[inhibitor] (M) -8.699): 96 and 106 and 94
- parasite growth, dose-response point ([6]; Log[inhibitor] (M) -9.000): 100 and 96 and 98
- parasite growth, dose-response point ([6]; Log[inhibitor] (M) -9.488): 96 and 100 and 101
